Test results from US20190216793A1, “COMPOSITIONS AND METHODS FOR TREATING NEGATIVE SYMPTOMS IN NON-SCHIZOPHRENIC PATIENTS” (Minerva Neurosciences, Inc., priority 2016, published 2019).
Like-named read-outs stand apart in the source and are kept apart here.

How the values were obtained:
[1] = QT interval association of metabolite; assay type: in vivo; conditions: supra-therapeutic levels
sigma2 [2] = biological target: T1, sigma2 (Homo sapiens, UniProt Q5BJF2); experiment: in vivo functional studies; parameters: In vivo functional studies have established that MIN-101 is an antagonist; from tissue; host or cells: whole organism in vivo
T1 sequence (Q5BJF2 whole entry): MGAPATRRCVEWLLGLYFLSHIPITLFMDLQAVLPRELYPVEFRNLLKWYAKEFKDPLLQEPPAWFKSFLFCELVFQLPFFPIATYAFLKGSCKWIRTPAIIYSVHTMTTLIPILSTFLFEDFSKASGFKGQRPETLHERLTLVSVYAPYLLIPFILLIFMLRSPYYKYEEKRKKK

[3] = biological target: 5-hydroxytryptamine-2A (5-HT2A) (Homo sapiens, UniProt P28223); experiment: receptor affinity; assay type: binding
Chain of 5-hydroxytryptamine-2A (5-HT2A) (P28223 whole entry, species assumed): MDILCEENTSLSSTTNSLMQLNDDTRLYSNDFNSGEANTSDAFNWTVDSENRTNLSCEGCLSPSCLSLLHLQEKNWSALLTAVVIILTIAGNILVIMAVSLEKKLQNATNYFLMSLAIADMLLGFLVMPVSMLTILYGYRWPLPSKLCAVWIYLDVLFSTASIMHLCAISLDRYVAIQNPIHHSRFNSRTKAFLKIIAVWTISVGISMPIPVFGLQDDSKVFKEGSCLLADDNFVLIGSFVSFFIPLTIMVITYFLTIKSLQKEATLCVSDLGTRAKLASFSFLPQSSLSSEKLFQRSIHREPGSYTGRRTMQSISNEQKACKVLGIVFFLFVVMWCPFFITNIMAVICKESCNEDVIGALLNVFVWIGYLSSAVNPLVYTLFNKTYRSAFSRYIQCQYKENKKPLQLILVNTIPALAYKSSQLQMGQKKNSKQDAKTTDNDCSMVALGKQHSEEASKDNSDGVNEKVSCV

[4] = tested on: patients with negative symptoms of schizophrenia; conditions: for improvement of negative symptoms compared to placebo: 32 mg and 64 mg daily doses, 244 schizophrenic patients; for effect size, PANSS Negative Subscale score (pentagonal model), change from baseline vs placebo: schizophrenic patients
α1-adrenergic receptors = experiment: receptor affinity; assay type: binding
sigma2 [5] = biological target: T1, sigma2; experiment: receptor affinity; assay type: binding
dopaminergic receptors = experiment: receptor affinity; assay type: binding
muscarinic receptors = experiment: receptor affinity; assay type: binding
5-HT2A receptors = biological target: T2, 5-HT2A receptors (Homo sapiens, UniProt P28223); experiment: in vivo functional studies
T2 construct: In vivo functional studies have established that MIN-101 is an antagonist; from tissue; host or cells: whole organism in vivo
T2 sequence (P28223 whole entry): as the sequence (P28223 whole entry, species assumed) above

histaminergic receptors = experiment: receptor affinity; assay type: binding
cholinergic receptors = experiment: receptor affinity; assay type: binding

## O=C1c2ccccc2CN1CC1CCN(CC(O)c2ccc(F)cc2)CC1 (stereo not drawn) [BFB-520]
[1]
  effect on QT intervals: prolongation of QT intervals

## O=C(CN1CCC(CN2Cc3ccccc3C2=O)CC1)c1ccc(F)cc1 [Compound I]
sigma2 [2]
  functional activity at sigma2 receptors: antagonizes sigma2 activity
[3]
  affinity for 5-HT2A: specific affinities
[4]; 12 weeks
  improvement of negative symptoms compared to placebo: statistically significant improvement
α1-adrenergic receptors
  affinity for α1-adrenergic receptors: lower affinity levels
sigma2 [5]
  affinity for sigma2: specific affinities

## Cl.O.O.O=C(CN1CCC(CN2Cc3ccccc3C2=O)CC1)c1ccc(F)cc1 [MIN-101, 2-{1-[2-(4-Fluorophenyl)-2-oxoethyl]piperidin-4-ylmethyl}-2,3-dihydroisoindol-1-one monohydrochloride dihydrate]
sigma2 [2]
  functional activity at sigma2 receptors: antagonist
Dopaminergic receptors
  affinity for dopaminergic receptors: very low or no affinity
Muscarinic receptors
  affinity for muscarinic receptors: very low or no affinity
5-HT2A receptors
  functional activity at 5-HT2A receptors: antagonist
[4]; 12 weeks
  improvement of negative symptoms compared to placebo: statistically significant benefit
[4]; 32 mg daily, 12 weeks, p≤0.023
  effect size, PANSS Negative Subscale score (pentagonal model), change from baseline vs placebo: 0.45
[4]; 32 mg daily, 12 weeks, not significant
  effect size, PANSS total score vs placebo: 0.35
[4]; 32 mg daily, 12 weeks, p≤0.006
  effect size, PANSS three factors negative symptoms subscale vs placebo: 0.55
[4]; 64 mg daily, 12 weeks, p≤0.003
  effect size, PANSS Negative Subscale score (pentagonal model), change from baseline vs placebo: 0.57
  effect size, PANSS total score vs placebo: 0.59
[4]; 64 mg daily, 12 weeks, p≤0.001
  effect size, PANSS three factors negative symptoms subscale vs placebo: 0.70
[4]; 12-week trial
  positive symptoms during the trial: remained stable
[4]; both doses (32 mg and 64 mg daily), 12 weeks
  effect on negative symptoms measured using the BNSS total score: Improvement in negative symptoms
[4]; human, in vivo
  incidence and types of side effects, MIN-101 group vs placebo group: did not differ significantly
  metabolic adverse effects: no metabolic adverse effects
  prolactin elevation: no prolactin elevation
Histaminergic receptors
  affinity for histaminergic receptors: very low or no affinity
Cholinergic receptors
  affinity for cholinergic receptors: very low or no affinity
